The target in the experiment is T1, FVIIa (Homo sapiens, UniProt P08709).
T1 construct: FVIIa (ADI#407, final 10 nM); purchased ADI #407 (FVIIa); #4500 (tissue factor)
The experiment is described as follows: FVIIa inhibitory activity (chromogenic substrate S-2288, FVIIa/tissue factor). As to conditions: FVIIa 10 nM, tissue factor 10 nM, 2 mM CaCl2, 0.5 mM S-2288, 37° C., pH 7.5. The class given is biochemical. The protocol:
10 μl of the compound of the present invention in 10% DMSO were added to 65 μl of the buffer solution including FVIIa (ADI#407, final 10 nM), tissue factor (ADI#4500, final 10 nM) and calcium chloride. The mixture was incubated for 10 minutes at 37° C., then 25 μl of 2 mM H-D-Ile-Pro-Arg-pNA (Chromogenix S-2288) was added (total volume 100 μl). The absorbance was measured at 405 nm at regular time intervals, and an initial velocity was calculated. The control value was measured with 10% of DMSO. Inhibitory activity was expressed as a 50% inhibition of control (IC50).
The final concentration of calcium chloride and S-2288 were 2 mM and 0.5 mM respectively. The buffer solution consisted of 50 mM tris-hydrochloric acid buffer (pH 7.5) containing 0.2% PEG6000 and 150 mM sodium chloride.

The values that follow come from patent US6358960B1, “Amidino derivatives and drugs containing the same as the active ingredient” (Ono Pharmaceutical Co., Ltd., priority 1998, dated 2002).

Each structure is given as a SMILES string.

T1 sequence (P08709 213-466 limits assumed): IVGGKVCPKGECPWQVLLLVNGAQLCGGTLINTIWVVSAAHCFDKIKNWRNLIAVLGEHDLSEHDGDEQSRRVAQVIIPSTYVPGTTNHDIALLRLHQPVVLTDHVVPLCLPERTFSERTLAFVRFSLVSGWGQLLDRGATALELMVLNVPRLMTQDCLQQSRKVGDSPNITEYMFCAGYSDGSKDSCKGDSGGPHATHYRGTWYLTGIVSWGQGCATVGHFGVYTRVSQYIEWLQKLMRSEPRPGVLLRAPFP
T1 sequence (P08709 61-212 limits assumed): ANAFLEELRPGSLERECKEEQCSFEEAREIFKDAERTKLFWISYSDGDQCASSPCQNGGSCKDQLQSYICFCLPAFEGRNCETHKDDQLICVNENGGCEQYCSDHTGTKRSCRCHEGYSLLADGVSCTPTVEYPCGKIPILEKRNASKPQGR
T1 sequence (P13726 33-295 partner): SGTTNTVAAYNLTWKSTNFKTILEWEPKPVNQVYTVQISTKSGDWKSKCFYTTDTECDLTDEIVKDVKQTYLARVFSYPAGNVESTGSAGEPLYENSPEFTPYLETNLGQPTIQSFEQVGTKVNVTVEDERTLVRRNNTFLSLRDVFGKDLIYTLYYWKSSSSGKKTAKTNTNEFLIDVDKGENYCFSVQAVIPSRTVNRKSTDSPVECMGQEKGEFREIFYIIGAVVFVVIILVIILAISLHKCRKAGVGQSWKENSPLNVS

Take `COc1ccc(-c2ccc(C(=O)N[C@H](CO)C(C)(C)C)cc2C(=O)O)c(C(=O)Nc2ccc(C(=N)N)cc2)n1` [Example 46, 2-[2-(4-amidinophenylcarbamoyl)-6-methoxy-3-pyridyl]-5-[(1(S)-hydroxymethyl-2,2-dimethylpropyl)carbamoyl]benzoic acid methanesulfonate]: it took 13 nM to reach half-maximal inhibition (IC50).
The same measure for `CC(C)CNC(=O)c1ccc(-c2cc3ccccc3cc2C(=O)Nc2ccc(C(=N)N)cc2)c(C(=O)O)c1` [Example 19(47), 2-(3-(4-amidinophenylcarbamoyl)naphthalen-2-yl)-5-((2-methylpropyl)carbamoyl)benzoic acid methanesulfonate]: 12 nM.
